Measurements reported in PubChem BioAssay (NCI).
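Dose response: 5 concentrations. Exposure: 48 h. Format: 96-well plates. Endpoint: linear interpolation; highest concentration if not reached. GI50 marks 50% less growth. Definition used: TGI = concentration required for complete inhibition of growth.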

Assays:
Assay in all cases: NCI anticancer screen, dose series, 48 h
[1] = test system: 786-0 renal
[2] = test system: A498 renal
[3] = test system: A549 NSCLC
[4] = test system: ACHN renal
[5] = test system: BT-549 breast
[6] = test system: CAKI-1 renal
[7] = test system: CCRF-CEM leukemia
[8] = test system: COLO 205 colon
[9] = test system: DU-145 prostate
[10] = test system: HCC-2998 colon
[11] = test system: HCT-116 colon
[12] = test system: HCT-15 colon
[13] = test system: HL-60(TB) leukemia
[14] = test system: HOP-62 NSCLC
[15] = test system: HS 578T breast
[16] = test system: HT29 colon
[17] = test system: IGROV1 ovarian
[18] = test system: K-562 leukemia
[19] = test system: KM12 colon
[20] = test system: M14 melanoma
[21] = test system: MALME-3M melanoma
[22] = test system: MCF7 breast
[23] = test system: MDA-MB-231 breast
[24] = test system: MDA-MB-435
[25] = test system: MOLT-4 leukemia
[26] = test system: NCI-H226 lung
[27] = test system: NCI-H23 lung
[28] = test system: NCI-H460 lung
[29] = test system: NCI-H522 lung
[30] = test system: NCI/ADR-RES ovarian
[31] = test system: OVCAR-3 ovarian
[32] = test system: OVCAR-4 ovarian
[33] = test system: OVCAR-5 ovarian
[34] = test system: OVCAR-8 ovarian
[35] = test system: PC-3 prostate
[36] = test system: RPMI-8226 leukemia
[37] = test system: RXF 393 renal
[38] = test system: SF-268 CNS
[39] = test system: SF-295 CNS
[40] = test system: SF-539 CNS
[41] = test system: SK-MEL-28 melanoma
[42] = test system: SK-MEL-5 melanoma
[43] = test system: SK-OV-3 ovarian
[44] = test system: SN12C renal
[45] = test system: SNB-19 CNS
[46] = test system: SNB-75 CNS
[47] = test system: SR leukemia
[48] = test system: SW-620 colon
[49] = test system: T-47D breast
[50] = test system: TK-10 renal
[51] = test system: U251 CNS
[52] = test system: UACC-257 melanoma
[53] = test system: UACC-62 melanoma
[54] = test system: UO-31 renal

COc1cc(-c2cc(-c3nc4ccc(F)cc4[nH]3)[nH]n2)cc(OC)c1OC
GI50 [1]: 3.97 µM | TGI [1]: 14.6 µM | GI50 [2]: 1.86 µM | TGI [2]: 11.9 µM | GI50 [3]: 2.46 µM | TGI [3]: 8.81 µM | GI50 [4]: 2.54 µM | TGI [4]: 11.6 µM | GI50 [5]: 1.84 µM | TGI [5]: 6.28 µM | GI50 [6]: 1.8 µM | TGI [6]: 6.84 µM | GI50 [7]: 1.98 µM | TGI [7]: 5.74 µM | GI50 [8]: 3.26 µM | TGI [8]: 10.3 µM | GI50 [9]: 3.17 µM | TGI [9]: 13 µM | GI50 [10]: 5.96 µM | TGI [10]: 18.7 µM | GI50 [11]: 2.81 µM | TGI [11]: 10.4 µM | GI50 [12]: 2.79 µM | TGI [12]: 10.8 µM | GI50 [13]: 2.52 µM | TGI [13]: 7.71 µM | GI50 [14]: 2.37 µM | TGI [14]: 8.05 µM | GI50 [15]: 3.32 µM | TGI [15]: > 100 µM | GI50 [16]: 4.4 µM | TGI [16]: 28.3 µM | GI50 [17]: 2.27 µM | TGI [17]: 10.7 µM | GI50 [18]: 2.87 µM | TGI [18]: 32.7 µM | GI50 [19]: 2.29 µM | TGI [19]: 6.23 µM | GI50 [20]: 2.36 µM | TGI [20]: 7.62 µM | GI50 [21]: 1.96 µM | TGI [21]: 8.44 µM | GI50 [22]: 2.11 µM | TGI [22]: 6.37 µM | GI50 [23]: 3.05 µM | TGI [23]: 15.2 µM | GI50 [24]: 2.12 µM | TGI [24]: 5.44 µM | GI50 [25]: 2.1 µM | TGI [25]: 4.82 µM | GI50 [26]: 1.28 µM | TGI [26]: 4.31 µM | GI50 [27]: 2.35 µM | TGI [27]: 6.89 µM | GI50 [28]: 2.9 µM | TGI [28]: 11.8 µM | GI50 [29]: 1.73 µM | TGI [29]: 5.15 µM | GI50 [30]: 3.19 µM | TGI [30]: 9.2 µM | GI50 [31]: 2.95 µM | TGI [31]: 10 µM | GI50 [32]: 1.29 µM | TGI [32]: 4.27 µM | GI50 [33]: 11.1 µM | TGI [33]: 24 µM | GI50 [34]: 1.99 µM | TGI [34]: 5.03 µM | GI50 [35]: 1.63 µM | TGI [35]: 5.84 µM | GI50 [36]: 1.24 µM | TGI [36]: 3.26 µM | GI50 [37]: 1.85 µM | TGI [37]: 9.36 µM | GI50 [38]: 3.23 µM | TGI [38]: 11.2 µM | GI50 [39]: 2.51 µM | TGI [39]: 9.67 µM | GI50 [40]: 3.58 µM | TGI [40]: 14.4 µM | GI50 [41]: 2.39 µM | TGI [41]: 6.52 µM | GI50 [42]: 1.39 µM | TGI [42]: 2.8 µM | GI50 [43]: 3.32 µM | TGI [43]: 9.59 µM | GI50 [44]: 2.92 µM | TGI [44]: 12.9 µM | GI50 [45]: 5.47 µM | TGI [45]: 18.8 µM | GI50 [46]: 1.76 µM | TGI [46]: 5.54 µM | GI50 [47]: 3.45 µM | TGI [47]: 32 µM | GI50 [48]: 4.11 µM | TGI [48]: 20.5 µM | GI50 [49]: 0.764 µM | TGI [49]: 3.09 µM | GI50 [50]: 4.39 µM | TGI [50]: 16 µM | GI50 [51]: 2.61 µM | TGI [51]: 12 µM | GI50 [52]: 2.15 µM | TGI [52]: 5.9 µM | GI50 [53]: 1.8 µM | TGI [53]: 4.82 µM | GI50 [54]: 1.74 µM | TGI [54]: 6.97 µM
